These compounds were tested against JAK1 (recombinant purified GST-tagged catalytic domain) (Homo sapiens (Human), UniProt P23458) (assay: biochemical).
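Note: biochemical assay with HTRF read-out.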

JAK1 (recombinant purified GST-tagged catalytic domain), sequence (P23458 875-1153): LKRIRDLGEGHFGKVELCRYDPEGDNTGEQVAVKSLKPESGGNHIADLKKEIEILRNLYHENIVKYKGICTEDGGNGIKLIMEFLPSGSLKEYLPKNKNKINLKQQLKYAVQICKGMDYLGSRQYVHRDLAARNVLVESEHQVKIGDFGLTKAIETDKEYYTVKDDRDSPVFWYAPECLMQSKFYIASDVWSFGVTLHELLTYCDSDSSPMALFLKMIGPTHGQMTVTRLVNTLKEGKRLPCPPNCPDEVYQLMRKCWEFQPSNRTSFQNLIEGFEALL

SMILES | IC50
N#C[C@H]1C[C@@H](O)CC[C@@H]1n1cc(C(N)=O)c(Nc2ccc(Cl)c(F)c2)n1 (single isomer, unassigned) [Example 33-3, 3-[(4-chloro-3-fluorophenyl)amino]-1-[(1S,2S,4S or 1R,2R,4R)-2-cyano-4-hydroxycyclohexyl]-1H-pyrazole-4-carboxamide] | 2 nM
COCC(C)N[C@H]1CCC(n2cc(C(N)=O)c(Nc3ccc(Cl)cc3)n2)[C@@H](C#N)C1 (single isomer, unassigned) [Example 28-237, 3-[(4-chlorophenyl)amino]-1-[(1S,2S,4S or 1R,2R,4R)-2-cyano-4-{[(1S)-2-methoxy-1-methylethyl]amino}cyclohexyl]-1H-pyrazole-4-carboxamide] | 1 nM
COC1CN([C@H]2CC[C@H](n3cc(C(N)=O)c(Nc4ccc(C(F)(F)F)cc4)n3)[C@@H](C#N)C2)C1 (single isomer, unassigned) [Example 28-99, 1-[(1S,2S,4S or 1R,2R,4R)-2-cyano-4-(3-methoxyazetidin-1-yl)cyclohexyl]-3-{[4-(trifluoromethyl)phenyl]amino}-1H-pyrazole-4-carboxamide] | 3 nM
N#C[C@H]1CC(NC2COC2)CC[C@@H]1n1cc(C(N)=O)c(Nc2ccc(S(=O)(=O)C(F)(F)F)cc2)n1 (single isomer, unassigned) [Example 28-155, 1-[(1S,2S or 1R,2R)-2-cyano-4-(oxetan-3-ylamino)cyclohexyl]-3-({4-[(trifluoromethyl)sulfonyl]phen-yl}amino)-1H-pyrazole-4-carboxamide] | 0.22 nM
N#C[C@H]1C[C@@H](N2CC(F)C2)CC[C@@H]1n1cc(C(N)=O)c(Nc2ccc(C(F)(F)F)cc2)n1 (single isomer, unassigned) [Example 28-105, 1-[(1S,2S,4S or 1R,2R,4R)-2-cyano-4-(3-fluoroazetidin-1-yl)cyclohexyl]-3-{[4-(trifluoromethyl)phenyl]amino}-1H-pyrazole-4-carboxamide] | 3 nM
N#C[C@H]1C[C@@H](C(=O)N2CC(F)C2)CC[C@@H]1n1cc(C(N)=O)c(Nc2ccc(Cl)cc2)n1 (single isomer, unassigned) [Example 35-34, 3-[(4-chlorophenyl)amino]-1-{(1S,2S,4S or 1R,2R,4R)-2-cyano-4-[(3-fluoroazetidin-1-yl)carbonyl]cyclohexyl}-1H-pyrazole-4-carboxamide] | 3 nM
N#C[C@H]1C[C@@H](NCC(F)(F)F)CC[C@@H]1n1cc(C(N)=O)c(Nc2ccc(Cl)cc2)n1 (single isomer, unassigned) [Example 28-224, 3-[(4-chlorophenyl)amino]-1-{(1S,2S,4S or 1R,2R,4R)-2-cyano-4-[(2,2,2-trifluoroethyl)amino]cyclo-hexyl}-1H-pyrazole-4-carboxamide] | 3 nM
CC(C)(C)NC(=O)c1cncc(Nc2nn([C@H]3CCCC[C@@H]3C#N)cc2C(N)=O)c1 (single isomer, unassigned) [Example 17-71, N-tert-butyl-5-({4-carbamoyl-1-[(1R,2R or 1S,2S)-2-cyanocyclohexyl]-1H-pyrazol-3-yl}amino)pyridine-3-carboxamide] | 60 nM
CC(C)NS(=O)(=O)c1ccc(Nc2nn([C@H]3CCCC[C@@H]3C#N)cc2C(N)=O)cc1 (single isomer, unassigned) [Example 17-93, 1-[(1R,2R or 1S,2S)-2-cyanocyclohexyl]-3-({4-[(1-methylethyl)sulfamoyl]phenyl}amino)-1H-pyrazole-4-carboxamide] | 0.3 nM
C[C@H]1C[C@H](C)N1[C@H]1CC[C@H](n2cc(C(N)=O)c(Nc3ccc(C(F)(F)F)cc3)n2)[C@@H](C#N)C1 (single isomer, unassigned) [Example 28-21, 1-{(1S,2S,4S or 1R,2R,4R)-2-cyano-4-[(2S,4S or 2R,4R)-2,4-dimethylazetidin-1-yl]cyclohexyl}-3-{[4-(trifluoromethyl)phenyl]amino}-1H-pyrazole-4-carboxamide] | 3 nM
COCC(C)(C)N[C@H]1CCC(n2cc(C(N)=O)c(Nc3ccccc3)n2)[C@@H](C#N)C1 (single isomer, unassigned) [Example 28-231, 1-{(1S,2S,4S or 1R,2R,4R)-2-cyano-4-[(2-methoxy-1,1-dimethylethyl)amino]cyclo-hexyl}-3-(phenylamino)-1H-pyrazole-4-carboxamide] | 16 nM
COC(C)(C)c1ccc(Nc2nn([C@H]3CC[C@@H](O)C[C@@H]3C#N)cc2C(N)=O)cc1 (single isomer, unassigned) [Example 25-11, 1-[(1S,2S,4R or 1R,2R,4S)-2-cyano-4-hydroxycyclohexyl]-3-{[4-(1-methoxy-1-methylethyl)phenyl]amino}-1H-pyrazole-4-carboxamide] | 0.45 nM
CC(C)(C(=O)O)c1ccc(Nc2nn([C@H]3CC[C@@H](N4CCC4)C[C@@H]3C#N)cc2C(N)=O)cc1 (single isomer, unassigned) [Example 28-80, 2-[4-({1-[(1S,2S,4R or 1R,2R,4S)-4-azetidin-1-yl-2-cyanocyclohexyl]-4-carbamoyl-1H-pyrazol-3-yl}amino)phenyl]-2-methylpropanoic acid] | 0.3 nM
N#C[C@H]1CCCC[C@@H]1n1cc(C(N)=O)c(Nc2ccc([C@@H](O)C(F)(F)F)nc2)n1 (single isomer, unassigned) [Example 17-46, 1-[(1S,2S or 1R,2R)-2-cyanocyclohexyl]-3-({6-[(1R or 1S)-2,2,2-trifluoro-1-hydroxyethyl]pyridin-3-yl}amino)-1H-pyrazole-4-carboxamide] | 0.35 nM
COC(=O)c1ccc(Nc2nn([C@H]3CCCC[C@@H]3C#N)cc2C(N)=O)cn1 (single isomer, unassigned) [Example 17-70, methyl 5-({4-carbamoyl-1-[(1R,2R or 1S,2S)-2-cyanocyclohexyl]-1H-pyrazol-3-yl}amino)pyridine-2-carboxylate] | 3 nM
N#C[C@H]1C[C@@H](C(=O)N[C@H](C2CC2)C(F)(F)F)CC[C@@H]1n1cc(C(N)=O)c(Nc2ccc(Cl)cc2)n1 (single isomer, unassigned) [Example 35-14, 3-[(4-chlorophenyl)amino]-1-[(1S,2S,4S or 1R,2R,4R)-2-cyano-4-{[(1R)-1-cyclopropyl-2,2,2-trifluoroethyl]carbamoyl}cyclohexyl]-1H-pyrazole-4-carboxamide] | 9 nM
C[C@@]1(O)CC[C@H](n2cc(C(N)=O)c(Nc3ccc(Cl)c(F)c3)n2)[C@@H](C#N)C1 (single isomer, unassigned) [Example 32-7, 3-[(4-chloro-3-fluorophenyl)amino]-1-[(1S,2S,4R or 1R,2R,4S)-2-cyano-4-hydroxy-4-methylcyclohexyl]-1H-pyrazole-4-carboxamide] | 5 nM
CC(C)(CF)c1ccc(Nc2nn([C@H]3CC[C@@H](O)C[C@@H]3C#N)cc2C(N)=O)cc1 (single isomer, unassigned) [Example 25-9, 1-[(1S,2S,4R or 1R,2R,4S)-2-cyano-4-hydroxycyclohexyl]-3-{[4-(2-fluoro-1,1-dimethylethyl)phenyl]amino}-1H-pyrazole-4-carboxamide] | 1 nM
C[C@H](N[C@H]1CC[C@H](n2cc(C(N)=O)c(Nc3ccc(OC(F)F)nc3)n2)[C@@H](C#N)C1)C1CC1 (single isomer, unassigned) [Example 28-32, 1-[(1S,2S,4S or 1R,2R,4R)-2-cyano-4-{[(1S)-1-cyclopropylethyl]amino}cyclo-hexyl]-3-{[6-(difluoromethoxy)pyridin-3-yl]amino}-1H-pyrazole-4-carboxamide] | 5 nM
N#C[C@@H]1CCCCC1n1cc(C(N)=O)c(Nc2ccc(S(=O)(=O)CC(F)(F)F)cc2)n1 (single isomer, unassigned) [Example 43-8, 1-[(1S,2S or 1R,2R)-2-cyanocyclohexyl]-3-({4-[(2,2,2-trifluoroethyl)sulfonyl]phenyl}amino)-1H-pyrazole-4-carboxamide] | 0.15 nM
CC(C)NC(=O)O[C@H]1CCC(n2cc(C(N)=O)c(Nc3ccc(F)cc3)n2)[C@@H](C#N)C1 (mixture of isomers) [Example 34-8, (1S,3S,4S and 1R,3R,4R)-4-{4-carbamoyl-3-[(4-fluorophenyl)amino]-1H-pyrazol-1-yl}-3-cyanocyclohexyl propan-2-ylcarbamate] | 6 nM
CC(C)(O)C1CC(CN[C@H]2CC[C@@H](n3cc(C(N)=O)c(Nc4ccc(C(F)(F)F)cc4)n3)[C@H](C#N)C2)C1 (single isomer, unassigned) [Example 30-4, 1-[(1R,2R,4S or 1S,2S,4R)-2-cyano-4-({[3-(1-hydroxy-1-methylethyl)cyclo-butyl]methyl}amino)cyclo-hexyl]-3-{[4-(trifluoro-methyl)phenyl]amino}-1H-pyrazole-4-carboxamide] | 1 nM
N#C[C@@H]1CC2(CCC1n1cc(C(N)=O)c(Nc3ccnc(F)c3)n1)CC2 (mixture of isomers) [Example 11-7, 1-((5R,6R and 5S,6S)-5-cyanospiro[2.5]octan-6-yl)-3-((2-fluoropyridin-4-yl)amino)-1H-pyrazole-4-carboxamide] | 5 nM
CC1(CNC(=O)[C@@H]2CC[C@@H](n3cc(C(N)=O)c(Nc4ccc(Cl)cc4)n3)[C@H](C#N)C2)COC1 (single isomer, unassigned) [Example 35-29, 3-[(4-chlorophenyl)amino]-1-[(1R,2R,4R or 1S,2S,4S)-2-cyano-4-{[(3-methyloxetan-3-yl)methyl]carbamoyl}cyclohexyl]-1H-pyrazole-4-carboxamide] | 38 nM
N#C[C@@H]1C[C@H](C(=O)N2CCC(F)(F)C2)CC[C@H]1n1cc(C(N)=O)c(Nc2ccc(Cl)cc2)n1 (single isomer, unassigned) [Example 35-32, 3-[(4-chlorophenyl)amino]-1-{(1R,2R,4R or 1S,2S,4S)-2-cyano-4-[(3,3-difluoropyrrolidin-1-yl)carbonyl]cyclohexyl}-1H-pyrazole-4-carboxamide] | 5 nM
N#C[C@@H]1CCCCC1n1cc(C(N)=O)c(Nc2ccc(S(=O)(=O)CC(F)(F)F)cc2)n1 (single isomer, unassigned) [Example 43-7, 1-[(1S,2S or 1R,2R)-2-cyanocyclohexyl]-3-({4-[(2,2,2-trifluoroethyl)sulfonyl]phenyl}amino)-1H-pyrazole-4-carboxamide] | 2 nM

Reference: patent publication US8962608B2, “Cycloalkylnitrile pyrazole carboxamides as janus kinase inhibitors” (Merck Sharp & Dohme Corp., priority 2011, dated 2015)
